The conditions of data set [1]: cited from earlier work.
The conditions of data set [2]: cited from earlier work. This is another data set of the same source.
The conditions of data set [3]: cited from earlier work. This is another data set of the same source.
For data set [4] the following is noted: cited from earlier work. This is another data set of the same source.
For data set [5] the following is noted: acute (test meal) and sub chronic (twice a day for 9 week), after sucrose feeding; cited from earlier work.
For data set [6] the following is noted: healthy and type 2 diabetic subjects, sucrose with 4% added L-Arabinose; cited from earlier work.
For data set [7] the following is noted: humans, after six months; cited from earlier work.
A further data set has as its system intestinal sucrase. The settings on record: porcine intestinal mucosa, in vitro; cited from earlier work.
For data set [8] the following is noted: rats, HCHF diet; cited from earlier work.
The conditions of data set [9]: pre-exercise ingestion; cited from earlier work.
For data set [10] the following is noted: HFD-fed mice; cited from earlier work.
For data set [11] the following is noted: alone or in combination with fructose, compared with glucose alone; cited from earlier work.
The conditions of data set [12]: blood plasma testing; cited from earlier work.
For data set [13] the following is noted: continuous intravenous, 1 g/kg body weight, human subjects; cited from earlier work.
Data set [14] can be described thus: In vivo study: test beverage, postprandial glucose and insulin responses. On the set-up: species or system people. The following applies: versus 25 g sucrose control, p=0.0001. How it is done: FIGS. 3 and 4 represent the outcome of an in vivo study performed using 15 previously selected people. Selected subjects arrived at the labs between 8 am and 9:45 am, and the start time for each subject was kept as similar as possible. After being weighed, 2 fasting blood samples at 5 min intervals were collected; subjects started to consume a test beverage (sweetener mixed with water) which was consumed in its entirety within 5 min. A timer was started at the first sip of the beverage, and further capillary blood samples were obtained at t=15, 30, 45, 60, 90 and 120±2 min, for the determination of glucose and insulin concentrations. Blood samples were collected into 2 separate vials: one (2-3 drops blood) for glucose analysis and the other (8-10 drops of blood) for insulin. Before and during the test, a blood glucose test record was filled out with the subject's initials, ID number, date, body weight, test meal, time of starting to eat, time it took to eat, time and composition of last meal, and any unusual activities. At the beginning and end, participants were asked to fill out a symptom questionnaire. During the 2 hours of the test, participants remain seated quietly. After the last blood sample was obtained participants were offered a snack and allowed to leave. […]

Setting [15] is: sucrose in combination with L-Arabinose versus sucrose.
[16] abbreviates: oral 15, 35 or 75 g in 250 ml, versus water alone.

Consider seven molecules from US20170251707A1, “PROCESS FOR THE PRODUCTION OF LOW COLORIE SWEETENER COMPOSITIONS AND USES THEREOF” (priority 2016, published 2017).

Molecules are shown by their SMILES. Where two headings read alike, the source gives them in different places.

On to `O=C[C@H](O)[C@@H](O)[C@H](O)[C@H](O)CO` [D-glucose, reference compound], for which, in [1] (oral 15 or 75 g in 250 ml), the “incremental area under the glucose response curve (AUC)” value was “significant dose-dependent increase” and the “incremental area under the insulin response curve (AUC)” value is on record as “significant dose-dependent increase”. In addition, the “reduction in blood glucose levels” value in data set [2] (after 180 minute) was 20%. Also, the “increment / elevation of blood glucose levels” value in data set [2] (healthy human subjects) was 52%.

`OC[C@@H](O)[C@@H](O)CO` [Erythritol, (2R,3S)-butane-1,2,3,4-tetraol]: the excretion result in data set [3] (human metabolism, for the most part) is “excreted unchanged in the urine”. In [3] (human metabolism), the absorption result is recorded as “absorbed into the bloodstream in the small intestine”. For the same molecule, in data set [3] (in vivo), the “increases in blood sugar levels” value is reported as “does not induce increases”, the laxative effects entry was “does not normally cause laxative effects” and the tooth decay result is reported as “does not cause”. In data set [3] (unlike other sugar alcohols), the gastric side effects result is “unlikely to cause”.

`O=C[C@H](O)[C@@H](O)[C@@H](O)CO` [L-Arabinose]: the liver triacylglycerol concentrations result in data set [4] (rats fed with sucrose, additional feeding of L-Arabinose) is “prevented this increase”. Moreover, in [4] (setting [15]), the blood glucose response entry is “suppressed” and the insulin response result is given as “suppressed”. The blood glucose result in data set [5] is “suppressed”. Also, in [6], the “increases in plasma glucose” value is on record as “reduced” and the “increases in serum insulin” value is listed as “reduced”. Further, in data set [7], the diastolic blood pressure result is listed as “slightly decreased”; the high-density lipoprotein cholesterol result is “slightly increased”; the “waist circumference, total cholesterol, fasting glucose, serum uric acid, low-density lipoprotein cholesterol” value is on record as “decreased”. Further, in the data set on intestinal sucrase, the “effect on intestinal sucrase activity” value is on record as “inhibitory effect”. Also, in [8], the “body weight, lee's index, visceral index” value was “lower”; the “dyslipidemia, insulin resistance, inflammation, and viscera function” value is listed as “improve”.

For the molecule `OC[C@H]1O[C@H](O[C@H]2O[C@H](CO)[C@@H](O)[C@H](O)[C@H]2O)[C@H](O)[C@@H](O)[C@@H]1O` [Trehalose], in [9], the “insulin response prior to exercise” value is “lower”, the “plasma glucose response prior to exercise” value was “lower” and the “prevalence of rebound hypoglycemia” value is reported as “reduced”. Besides, in data set [10], the adipocyte hypertrophy result is on record as “prevents” and the insulin resistance result was “mitigates”. In addition, in data set [11], the glycemic response entry is “lower” and the insulinemic response entry is recorded as “lower”. Besides, the “influence on blood glucose levels” value in data set [12] is “almost flat response”.

Take `O=C[C@H](O)[C@@H](O)[C@@H](O)[C@H](O)CO` [galactose, reference compound]: in data set [9], the “insulin response prior to exercise” value was “lower”, the “plasma glucose response prior to exercise” value was “lower” and the “prevalence of rebound hypoglycemia” value is “reduced”.

In the case of `OCC(O)CO` [glycerol], in data set [1] (setting [16]), the insulin response result is listed as “did not differ significantly from those after water alone” and the plasma glucose response entry is listed as “did not differ significantly from those after water alone”. Moreover, the serum insulin concentration entry in [13] is “did not result in an increased”.

As for `OC[C@H]1O[C@H](O[C@]2(CCl)O[C@H](CCl)[C@@H](O)[C@@H]2O)[C@H](O)[C@@H](O)[C@H]1Cl` [sucralose], the “postprandial insulin responses (FIG. 5)” value in data set [14] is given as “significantly lower than sucrose”.
